Literature values in patent US10758506B2, “Amino acid compositions for the treatment of porcine epidemic diarrhea” (priority 2014, dated 2020).

Conditions: Health Phys., 106(6):734-44, 2014

N[C@@H](CS)C(=O)O [cysteine]
active anion secretion and/or paracellular permeability: activate active anion secretion and/or increase paracellular permeability

N[C@@H](CCC(=O)O)C(=O)O [glutamic acid]
active anion secretion and/or paracellular permeability: activate active anion secretion and/or increase paracellular permeability

N[C@@H](Cc1ccccc1)C(=O)O [phenylalanine]
active anion secretion and/or paracellular permeability: activate active anion secretion and/or increase paracellular permeability

NC(=O)C[C@H](N)C(=O)O [asparagine]
active anion secretion and/or paracellular permeability: activate active anion secretion and/or increase paracellular permeability

CC(C)C[C@H](N)C(=O)O [leucine]
active anion secretion and/or paracellular permeability: activate active anion secretion and/or increase paracellular permeability

C[C@H](N)C(=O)O [alanine]
active anion secretion and/or paracellular permeability: activate active anion secretion and/or increase paracellular permeability

N[C@@H](Cc1c[nH]cn1)C(=O)O [histidine]
active anion secretion and/or paracellular permeability: activate active anion secretion and/or increase paracellular permeability

NC(=O)CC[C@H](N)C(=O)O [glutamine]
active anion secretion and/or paracellular permeability: activate active anion secretion and/or increase paracellular permeability

N=C(N)NCCC[C@H](N)C(=O)O [Arginine]
active anion secretion and/or paracellular permeability: activate active anion secretion and/or increase paracellular permeability

CSCC[C@H](N)C(=O)O [methionine]
active anion secretion and/or paracellular permeability: activate active anion secretion and/or increase paracellular permeability
